Assay results from patent publication US8765805B2, “Ligand activators of the RAR receptors and pharmaceutical/cosmetic applications thereof” (Galderma Research & Development, priority 2003, dated 2014).

Tests used:
Format in all cases: cell-based
Conditions in all cases: HeLa stable transfectants; for Kd: Schild regression vs reference antagonist, read-out: Kdapp; for AC50: concentration that gives 50% of the activity
RAR alpha = target: T1, RAR alpha (Homo sapiens, UniProt P10276); test: Transactivation test, HeLa reporter cells (luciferase), RAR alpha
T1 sequence (P10276 183-417 limits assumed): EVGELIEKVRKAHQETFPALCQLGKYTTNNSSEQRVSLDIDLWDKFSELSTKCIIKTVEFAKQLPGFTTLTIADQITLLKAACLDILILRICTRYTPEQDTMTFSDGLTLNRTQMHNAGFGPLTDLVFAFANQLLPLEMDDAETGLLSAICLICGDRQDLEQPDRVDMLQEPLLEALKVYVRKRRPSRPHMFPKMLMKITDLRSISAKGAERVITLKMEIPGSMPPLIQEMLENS
Method: (§1) The activation of receptors with an agonist (activator) in HeLa cells leads to the expression of a reporter gene, luciferase, which, in the presence of a substrate, generates light. The activation of the receptors may thus be measured by quantifying the luminescence produced after incubating the cells in the presence of a reference antagonist. The activating products displace the antagonist from its site, thus allowing activation of the receptor. The activity is measured by quantifying the increase in light produced. This measurement makes it possible to determine the activating activity of the compounds according to the invention.
(§2) Determination of the Kdapp:
(§3) In this study, a constant is determined which is the affinity of the molecule for the receptor. Since this value can fluctuate depending on the basal activity and the expression of the receptor, it is referred to as the Kdapparent (KdApp).
(§4) To determine this constant, the cells are brought into contact with a concentration of the test product and a concentration of the reference antagonist, 4-(5,5-dimethyl-8-p-tolyl-5,6-dihydronaphth-2-ylethynyl)benzoic acid. Measurements are also taken for the total agonist (4-[2-(5,5,8,8-tetramethyl-5,6,7,8-tetrahydronaphth-2-yl)propenyl]benzoic acid) and inverse agonist, 4-{(E)-3-[4-(4-tert-butylphenyl)-5,5,8,8-tetramethyl-5,6,7,8-tetrahydro-2-naphthyl]-3-oxopropenyl}benzoic acid, controls.
(§5) These crossed curves make it possible to determine the AC50 values (concentration at which 50% activation is observed) for the reference ligand at various concentrations of test product. These AC50 values are used to calculate the Schild regression by plotting a straight line corresponding to the Schild equation (“quantitation in receptor pharmacology” Terry P. Kenakin, Receptors and Channels, 2001, 7, 371-385).
(§6) In the case of an agonist, an AC50 value (concentration that gives 50% of the activity) is calculated by plotting the curve of the product at the concentration of the reference ligand that gives 80% activation.
(§7) The HeLa cell lines used are stable transfectants containing the plasmids ERE-βGlob-Luc-SV-Neo (reporter gene) and RAR (α, β, γ) ER-DBD-puro. These cells are inoculated into 96-well plates at a rate of 10,000 cells per well in 100 μl of DMEM medium without phenol red, and supplemented with 10% defatted calf serum. The plates are then incubated at 37° C. and 7% CO2 for 4 hours.
(§8) The various dilutions of the test products, of the reference ligand (4-(5,5-dimethyl-8-p-tolyl-5,6-dihydronaphth-2-yl)ethynyl)benzoic acid, of the 100% control (100 nM 4-[2-(5,5,8,8-tetramethyl-5,6,7,8-tetrahydro-2-naphthyl)propenyl]benzoic acid) and of the 0% control (500 nM 4-{(E)-3-[4-(4-tert-butylphenyl)-5,5,8,8-tetramethyl-5,6,7,8-tetrahydro-2-naphthyl]-3-oxopropenyl}benzoic acid) are added at a rate of 5 μl per well. The plates are then incubated for 18 hours at 37° C. and 7% CO2.
(§9) The culture medium is removed by turning over and 100 μl of a 1:1 PBS/luciferine mixture is added to each well. After 5 minutes, the plates are read using the luminescence detector.

RAR beta = target: T2, RAR beta (Homo sapiens, UniProt P10826); test: Transactivation test, HeLa reporter cells (luciferase), RAR beta
T2 sequence (P10826 183-417 limits assumed): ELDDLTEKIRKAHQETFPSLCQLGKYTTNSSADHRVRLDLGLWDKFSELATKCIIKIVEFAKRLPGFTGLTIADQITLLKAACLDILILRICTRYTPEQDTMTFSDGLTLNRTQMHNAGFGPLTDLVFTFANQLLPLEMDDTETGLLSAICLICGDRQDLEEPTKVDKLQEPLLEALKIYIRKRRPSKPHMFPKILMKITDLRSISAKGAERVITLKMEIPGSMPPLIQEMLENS
Method: as §1, §2, §3, §4, §5, §6, §7, §8, §9

RAR gamma = target: T3, RAR gamma (Homo sapiens, UniProt P13631); test: Transactivation test, HeLa reporter cells (luciferase), RAR gamma
T3 sequence (P13631 185-419 limits assumed): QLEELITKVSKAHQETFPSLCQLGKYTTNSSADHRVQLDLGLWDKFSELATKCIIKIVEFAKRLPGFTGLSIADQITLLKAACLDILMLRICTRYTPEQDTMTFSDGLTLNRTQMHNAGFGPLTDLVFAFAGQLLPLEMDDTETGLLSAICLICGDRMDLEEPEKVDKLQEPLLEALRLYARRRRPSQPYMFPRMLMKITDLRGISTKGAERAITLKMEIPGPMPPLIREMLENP
Method: as §1, §2, §3, §4, §5, §6, §7, §8, §9

Row | Compound | Kd (RAR alpha) | AC50 (RAR alpha) | Kd (RAR beta) | AC50 (RAR beta) | Kd (RAR gamma) | AC50 (RAR gamma)
1 | CCOCCOc1cc(C(O)C#Cc2ccc(C(=O)O)cc2)cc2c1C(C)(C)CCC2(C)C (stereo not drawn) [Ex 2, 4-{3-Hydroxy-3-[4-(2-ethoxyethoxy)-5,5,8,8-tetramethyl-5,6,7,8-tetrahydronaphth-2-yl]-prop-1-ynyl}benzoic acid] | 1000 nM | 900 nM | – | 500 nM | 30 nM | 50 nM
2 | CCOCCOc1cc(C(O)C#Cc2ccc(C(=O)O)c(O)c2)cc2c1C(C)(C)CCC2(C)C (stereo not drawn) [Ex 3, 4-{3-Hydroxy-3-[4-(2-ethoxyethoxy)-5,5,8,8-tetramethyl-5,6,7,8-tetrahydronaphth-2-yl]prop-1-ynyl}-2-hydroxybenzoic acid] | 30 nM | 150 nM | 120 nM | 100 nM | 1 nM | 1 nM

More lines, in order of falling Kd (RAR alpha), values ahead:

Row | Kd (RAR alpha) | AC50 (RAR alpha) | Kd (RAR beta) | AC50 (RAR beta) | Kd (RAR gamma) | AC50 (RAR gamma) | Compound
3 | 120 nM | 800 nM | – | 200 nM | 1 nM | 1.2 nM | CCOCCOc1cc([C@H](O)C#Cc2ccc(C(=O)O)cc2)cc2c1C(C)(C)CCC2(C)C [Ex 4, 4-{3-Hydroxy-3-[4-(2-ethoxyethoxy)-5,5,8,8-tetramethyl-5,6,7,8-tetrahydronaphth-2-yl]-prop-1-ynyl}benzoic (S)-acid]
4 | 120 nM | 800 nM | – | 200 nM | 1 nM | 1.8 nM | CCOCCOc1cc([C@@H](O)C#Cc2ccc(C(=O)O)cc2)cc2c1C(C)(C)CCC2(C)C [Ex 5, 4-{3-Hydroxy-3-[4-(2-ethoxyethoxy)-5,5,8,8-tetramethyl-5,6,7,8-tetrahydronaphth-2-yl]prop-1-ynyl}benzoic (R)-acid]
5 | 60 nM | 400 nM | 60 nM | 45 nM | 2 nM | 2 nM | COCCOc1cc(C(O)C#Cc2ccc(C(=O)O)cc2)cc2c1C(C)(C)CCC2(C)C (stereo not drawn) [Ex 1, 4-{3-Hydroxy-3-[4-(2-methoxyethoxy)-5,5,8,8-tetramethyl-5,6,7,8-tetrahydronaphth-2-yl]prop-1-ynyl}benzoic acid]
